# Columns and labels:
# Test in all cases: relative viability (nuclei count vs DMSO), 5 days (fraction); higher = more cells survive
# [1] = compound: CCc1cnn2c(NCc3ccc[n+]([O-])c3)cc(N3CCCC[C@H]3CCO)nc12 [Dinaciclib]
# Outline: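 Viability was read as treated-well nuclei divided by vehicle-well nuclei, using the median across plates. Lung cancer cell lines in 1536-well plates were kept overnight at 37 °C, pinned with five √10-spaced library-drug doses, and after 5 days were Hoechst-stained, imaged at 4× and counted in MetaXpress. Plates passed only with control CV below 25% and at least one doubling.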
# [2] = compound: CCc1cnn2c(NCc3ccc[n+]([O-])c3)cc(N3CCCC[C@H]3CCO)nc12 [Dinaciclib] + Nc1ncn([C@H]2C[C@H](O)[C@@H](CO)O2)c(=O)n1 [Decitabine] (partner 2 µM)
# Outline: (§1)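 Lung cancer cell lines in 1536-well plates were dosed by pin tool the day after seeding, either with one drug alone or with a fixed anchor-drug dose plus five library-drug doses (not always all listed) in √10 steps. After 5 days, cells were fixed and their nuclei stained in one step (final 0.05% Triton X-100, 1% formaldehyde, 1 ug/ml Hoechst), then counted on 4× images. Relative viability is the nuclei count in treated wells divided by that in vehicle wells. Values are medians of duplicate plates.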
# [3] = compound: CCc1cnn2c(NCc3ccc[n+]([O-])c3)cc(N3CCCC[C@H]3CCO)nc12 [Dinaciclib] + COc1cccc2cc(-c3nc([C@H]4CC[C@H](C(=O)O)CC4)n4ncnc(N)c34)[nH]c12 [OSI-027] (partner 0.5 µM)
# Outline: as §1
# [4] = compound: CCc1cnn2c(NCc3ccc[n+]([O-])c3)cc(N3CCCC[C@H]3CCO)nc12 [Dinaciclib] + CS(=O)(=O)N1CCN(Cc2cc3nc(-c4cccc5[nH]ncc45)nc(N4CCOCC4)c3s2)CC1 [Pictilisib] (partner 1 µM)
# Outline: as §1
# [5] = compound: CCc1cnn2c(NCc3ccc[n+]([O-])c3)cc(N3CCCC[C@H]3CCO)nc12 [Dinaciclib] + CC1(C)CCC(c2ccc(Cl)cc2)=C(CN2CCN(c3ccc(C(=O)NS(=O)(=O)c4ccc(N[C@H](CCN5CCOCC5)CSc5ccccc5)c(S(=O)(=O)C(F)(F)F)c4)cc3)CC2)C1 [Navitoclax] (partner 0.5 µM)
# Outline: as §1
Cell Line,relative viability ([1]; 0.009487 µM),relative viability ([1]; 0.03 µM),relative viability ([1]; 0.09487 µM),relative viability ([1]; 0.3 µM),relative viability ([2]; first compound 0.009487 µM),relative viability ([2]; first compound 0.03 µM),relative viability ([2]; first compound 0.09487 µM),relative viability ([2]; first compound 0.3 µM),relative viability ([3]; first compound 0.009487 µM),relative viability ([3]; first compound 0.03 µM),relative viability ([3]; first compound 0.09487 µM),relative viability ([3]; first compound 0.3 µM),relative viability ([4]; first compound 0.009487 µM),relative viability ([4]; first compound 0.03 µM),relative viability ([4]; first compound 0.09487 µM),relative viability ([4]; first compound 0.3 µM),relative viability ([5]; first compound 0.009487 µM),relative viability ([5]; first compound 0.03 µM),relative viability ([5]; first compound 0.09487 µM),relative viability ([5]; first compound 0.3 µM)
LCLC-97TM1,0.506,0.134,0.0776,0.0861,0.167,0.0798,0.0518,0.0627,0.298,0.167,0.122,0.113,0.209,0.116,0.109,0.0963,0.44,0.108,0.162,0.114
LK-2,0.888,0.193,0.177,0.151,0.27,0.119,0.0855,0.0805,0.218,0.196,0.16,0.131,0.358,0.23,0.21,0.214,0.761,0.123,0.0967,0.102
LOU-NH91,0.958,0.311,0.261,0.269,0.642,0.434,0.269,0.271,0.787,0.543,0.227,0.222,0.507,0.288,0.254,0.229,0.707,0.254,0.151,0.138
LU99A,0.838,0.199,0.139,0.133,0.793,0.145,0.13,0.149,0.284,0.202,0.153,0.144,0.283,0.134,0.109,0.122,0.363,0.13,0.126,0.121
LXF-289,1.07,0.924,0.134,0.101,0.356,0.293,0.109,0.0948,0.948,0.4,0.0693,0.0617,0.843,0.0778,0.0596,0.0483,0.921,0.189,0.0659,0.0645
NCI-H23,0.633,0.176,0.109,0.126,0.242,0.216,0.14,0.135,0.714,0.227,0.132,0.1,0.41,0.148,0.126,0.145,0.74,0.173,0.113,0.12
NCI-H322M,0.721,0.333,0.289,0.258,0.713,0.441,0.416,0.348,0.419,0.286,0.323,0.285,0.497,0.262,0.2,0.583,1.27,1.2,0.587,0.205
NCI-H441,1.13,0.162,0.146,0.158,0.223,0.199,0.134,0.147,0.519,0.185,0.202,0.153,0.589,0.126,0.111,0.115,0.655,0.11,0.135,0.128
NCI-H460,0.885,0.0593,0.0265,0.0308,0.232,0.0239,0.0139,0.0224,0.392,0.0364,0.0185,0.0206,0.264,0.0398,0.0429,0.0452,1.05,0.0119,0.0108,0.0098
NCI-H520,0.915,0.276,0.155,0.18,0.47,0.131,0.155,0.168,0.277,0.179,0.19,0.156,0.25,0.169,0.0942,0.165,0.69,0.12,0.12,0.117
NCI-H596,0.977,0.846,0.261,0.18,1.48,0.839,0.271,0.258,0.787,0.665,0.392,0.153,0.418,0.245,0.157,0.106,0.872,0.276,0.0498,0.09
NCI-H647,0.713,0.0972,0.0714,0.0765,0.296,0.131,0.0349,0.0773,0.499,0.206,0.0824,0.0778,0.493,0.0803,0.0566,0.0473,0.764,0.0454,0.0549,0.0648
NCI-H727,0.975,0.411,0.222,0.245,0.916,0.37,0.413,0.373,0.468,0.317,0.285,0.326,0.297,0.173,0.196,0.134,0.37,0.0912,0.0827,0.0949
NCI-H838,0.88,0.173,0.128,0.137,0.337,0.162,0.131,0.138,0.436,0.219,0.0977,0.0933,0.28,0.117,0.111,0.101,0.901,0.226,0.13,0.118
NCI-H1355,1.08,0.681,0.214,0.151,0.364,0.321,0.174,0.157,0.435,0.212,0.159,0.151,0.476,0.146,0.0972,0.133,0.943,0.159,0.123,0.0999
NCI-H1395,0.637,0.308,0.263,0.272,0.649,0.286,0.286,0.251,0.631,0.311,0.251,0.215,0.483,0.248,0.269,0.248,1.06,0.263,0.299,0.267
NCI-H1437,0.894,0.227,0.17,0.154,0.405,0.194,0.182,0.197,1,0.506,0.132,0.132,0.378,0.0843,0.0843,0.0936,0.972,0.108,0.106,0.0962
NCI-H1650,0.943,0.174,0.134,0.148,0.472,0.258,0.135,0.12,0.426,0.15,0.136,0.123,0.536,0.146,0.101,0.112,1.17,0.144,0.0928,0.139
NCI-H1651,0.969,0.764,0.186,0.0892,0.705,0.391,0.105,0.0596,0.694,0.53,0.163,0.0729,0.507,0.115,0.0517,0.0439,0.745,0.289,0.0312,0.0396
NCI-H1666,0.896,0.485,0.376,0.345,0.831,0.487,0.326,0.333,0.857,0.484,0.375,0.346,0.4,0.19,0.21,0.226,0.848,0.186,0.227,0.244
NCI-H1734,0.824,0.145,0.133,0.14,0.5,0.277,0.134,0.139,0.471,0.13,0.11,0.116,0.396,0.188,0.124,0.128,0.714,0.122,0.07,0.0846
NCI-H1755,1.01,0.894,0.257,0.266,0.754,0.733,0.261,0.239,0.763,0.519,0.194,0.258,0.387,0.132,0.127,0.143,1.01,0.596,0.122,0.123
NCI-H1792,1.01,0.358,0.117,0.0792,0.522,0.373,0.0508,0.0591,0.729,0.539,0.36,0.174,0.234,0.121,0.0539,0.0574,0.678,0.174,0.0483,0.0639
NCI-H1793,0.78,0.227,0.152,0.138,0.488,0.206,0.127,0.149,0.268,0.13,0.107,0.123,0.288,0.177,0.145,0.2,0.42,0.17,0.139,0.134
NCI-H1915,0.69,0.202,0.159,0.12,0.253,0.24,0.131,0.12,0.525,0.169,0.156,0.138,0.658,0.158,0.121,0.102,0.759,0.267,0.058,0.0578
NCI-H1944,0.971,0.166,0.141,0.149,0.44,0.199,0.137,0.156,0.413,0.156,0.139,0.141,0.4,0.172,0.168,0.177,1.19,0.67,0.177,0.169
NCI-H1975,0.969,0.442,0.164,0.144,0.327,0.176,0.135,0.143,0.783,0.347,0.0912,0.0908,0.166,0.0983,0.102,0.102,1.08,0.143,0.137,0.128
NCI-H1993,0.861,0.631,0.483,0.485,0.702,0.462,0.445,0.406,0.538,0.57,0.625,0.6,0.694,0.834,–,0.588,0.799,0.499,–,0.562
NCI-H2009,0.937,0.179,0.109,0.1,0.41,0.294,0.081,0.0958,0.528,0.0935,0.11,0.107,0.661,0.0836,0.0705,0.0666,1.01,0.515,0.0255,0.031
NCI-H2023,0.706,0.0772,0.0615,0.0696,0.157,0.0607,0.0544,0.0524,0.395,0.0919,0.052,0.067,0.26,0.0718,0.0607,0.0559,0.929,0.0702,0.0635,0.0619
